pIC50: −log10 of the molar value. Where two headings read alike, the source gives them in different places.
How the values were obtained:
[1] = system: human GI microtissues (EpiIntestinal-FT, ileal); assay: Human GI microtissue barrier function assay; type: cell-based; details: for TEER (IC15): human microtissue, blinded, unit not given; for IC15: Homo sapiens
human GI microtissue [2] = assay: GI microtissue TEER response kinetics; type: cell-based
Caco-2 cells = details: for Caco-2 TEER IC15: Caco-2 transwell, top conc. 100 μM, unit inferred; for Caco-2 TEER IC15/Cmax: human
human GI microtissue [3] = assay: MTT viability assay; type: cell-based; details: Caco-2, read-out: MTT IC50
[4] = 96 h, read-out: Microtissue Exp 1 TEER IC15
[5] = read-out: Microtissue Exp 2 TEER IC15

SMILES | Caco-2 TEER IC15 (Caco-2 cells) | pIC50 (human GI microtissue [3]) | IC15 [1, 4] | IC15 [1, 5] | further results
CSCC[C@H](NC(=O)c1cc(NC[C@@H]2C[C@H](SC(=O)c3cccnc3)CN2)ccc1CCc1ccc(F)cc1)C(=O)OC(C)C [AZD3409] | – | – | – | – | TEER (IC15) [1]: 3.0E-06; TEER Diarrhea-Genic Prediction ([1]; scored with TEER IC15/Cmax ratio < 80): Active
CNC(=O)CN1CCC(Oc2cc3c(Nc4cccc(Cl)c4F)ncnc3cc2OC)CC1 [AZD8931] | – | – | – | – | TEER recovery after washout (human GI microtissue [2]; 100 μM for 3 days, then washout (first cycle)): quickly recovered TEER after washout; Effect on TEER during 3-day treatment period (human GI microtissue [2]; 100 μM, 3 days continuous, TEER measured daily): pronounced decrease in TEER; TEER recovery after second treatment cycle (human GI microtissue [2]; 100 μM, second treatment cycle): slower; TEER Diarrhea-Genic Prediction [1]: Active; TEER (IC15) [1]: 3.0E-9
CN(C)C/C=C/C(=O)Nc1cc2c(Nc3ccc(F)c(Cl)c3)ncnc2cc1O[C@H]1CCOC1 [Afatinib] | 9 µM | 4.52 | 6 µM | 8.5 µM | –
COc1cc2nc(N(C)CCCNC(=O)C3CCCO3)nc(N)c2cc1OC (stereo not drawn) [Alfuzosin] | – | < 4.00 | > 100 µM | > 100 µM | Caco-2 TEER IC15/Cmax (Caco-2 cells): 3132
CCCCc1oc2ccccc2c1C(=O)c1cc(I)c(OCCN(CC)CC)c(I)c1 [Amiodarone] | – | – | 40 µM | – | –
CCOC(=O)C1=C(COCCN)NC(C)=C(C(=O)OC)C1c1ccccc1Cl (stereo not drawn) [Amlodipine] | 30 µM | 4.35 | 15 µM | 10 µM | –
CNC(=O)c1ccccc1Sc1ccc2c(/C=C/c3ccccn3)n[nH]c2c1 [Axitinib] | – | – | 1 µM | > 100 µM | –
CC(C)C[C@H](NC(=O)[C@H](Cc1ccccc1)NC(=O)c1cnccn1)B(O)O [Bortezomib] | 1 µM | < 4.00 | 1 µM | 1 µM | –
CCCCCOC(=O)Nc1nc(=O)n([C@@H]2O[C@H](C)[C@@H](O)[C@H]2O)cc1F [Capecitabine] | > 100 µM | < 4.00 | 1 µM | 1 µM | –
COc1cc2c(c(OC)c1OC)-c1ccc(OC)c(=O)cc1[C@@H](NC(C)=O)CC2 [Colchicine] | – | – | > 100 µM | 1 µM | –
C[C@@H](Oc1cc(-c2cnn(C3CCNCC3)c2)cnc1N)c1c(Cl)ccc(F)c1Cl [Crizotinib] | 8 µM | 4.66 | 9.5 µM | 9.5 µM | –
C[C@@H]1C[C@H]2[C@@H]3CCC4=CC(=O)C=C[C@]4(C)[C@@]3(F)[C@@H](O)C[C@]2(C)[C@@]1(O)C(=O)CO [Dexamethasone] | > 100 µM | < 4.00 | > 100 µM | > 100 µM | –
Cc1cccc([C@H](C)c2cnc[nH]2)c1C [Dexmedetomidine] | – | < 4.00 | 40 µM | 40 µM | Caco-2 TEER IC15/Cmax (Caco-2 cells): 21138
CC(=O)Oc1cccc2c1C(=O)c1c(OC(C)=O)cc(C(=O)O)cc1C2=O [Diacerein] | > 100 µM | 4.19 | 40 µM | 40 µM | –
CC(=O)O[C@@]12CO[C@@H]1C[C@H](O)[C@@]1(C)C(=O)[C@H](O)C3=C(C)[C@@H](OC(=O)[C@H](O)[C@@H](NC(=O)OC(C)(C)C)c4ccccc4)C[C@@](O)([C@@H](OC(=O)c4ccccc4)[C@H]21)C3(C)C [Docetaxel] | > 100 µM | 4.19 | 40 µM | 40 µM | –
CN(CCOc1ccc(NS(C)(=O)=O)cc1)CCc1ccc(NS(C)(=O)=O)cc1 [Dofetilide] | > 100 µM | < 4.00 | > 100 µM | > 100 µM | –

SMILES | Caco-2 TEER IC15 (Caco-2 cells) | pIC50 (human GI microtissue [3]) | IC15 [1, 4] | IC15 [1, 5] | further results
CC(C)(C)NC(=O)[C@H]1CC[C@H]2[C@@H]3CC[C@H]4NC(=O)C=C[C@]4(C)[C@H]3CC[C@]12C [Finasteride] | > 100 µM | < 4.00 | 80 µM | > 100 µM | –
O=C(NCC1CCCCN1)c1cc(OCC(F)(F)F)ccc1OCC(F)(F)F (stereo not drawn) [Flecainide] | > 100 µM | < 4.00 | 80 µM | > 100 µM | –
CO[C@H]1O[C@H](COS(=O)(=O)O)[C@@H](O[C@@H]2O[C@@H](C(=O)O)[C@@H](O[C@H]3O[C@H](COS(=O)(=O)O)[C@@H](O[C@@H]4O[C@H](C(=O)O)[C@@H](O[C@H]5O[C@H](COS(=O)(=O)O)[C@@H](O)[C@H](O)[C@H]5NS(=O)(=O)O)[C@H](O)[C@H]4O)[C@H](OS(=O)(=O)O)[C@H]3NS(=O)(=O)O)[C@H](O)[C@H]2OS(=O)(=O)O)[C@H](O)[C@H]1NS(=O)(=O)O [Fondaparinux] | > 100 µM | < 4.00 | > 100 µM | > 100 µM | –
O=C(CCCN1CCC(O)(c2ccc(Cl)cc2)CC1)c1ccc(F)cc1 [Haloperidol] | 30 µM | – | 22 µM | 8 µM | –
CC(=O)[C@]1(O)Cc2c(O)c3c(c(O)c2[C@@H](O[C@H]2C[C@H](N)[C@H](O)[C@H](C)O2)C1)C(=O)c1ccccc1C3=O [Idarubicin] | 8 µM | 5.00 | 4.3 µM | 2.5 µM | –
Cc1ccc(NC(=O)c2ccc(CN3CCN(C)CC3)cc2)cc1Nc1nccc(-c2cccnc2)n1 [Imatinib] | – | – | 7 µM | 8 µM | –
CC(C)NCC(O)c1ccc(O)c(O)c1 (stereo not drawn) [Isoprenaline] | > 100 µM | < 4.00 | > 100 µM | > 100 µM | –
CNCCCC12CCC(c3ccccc31)c1ccccc12 [Maprotiline] | – | – | 6 µM | 9 µM | –
COc1c2occc2cc2ccc(=O)oc12 [Methoxsalen] | – | 3.82 | 150 µM | 150 µM | –
CC(C)(C)NCC(O)COc1cccc2c1CC(O)C(O)C2 (stereo not drawn) [Nadolol] | > 100 µM | < 4.00 | > 100 µM | > 100 µM | –
CCCCC[C@H](O)/C=C/[C@@H]1[C@H]2C/C(=C/CCCC(=O)O)O[C@H]2C[C@H]1O [Prostacyclin] | > 100 µM | < 4.00 | > 100 µM | > 100 µM | –
C=C[C@H]1C[N@@]2CC[C@H]1C[C@@H]2[C@@H](O)c1ccnc2ccc(OC)cc12 [Quinidine] | – | < 4.00 | 30 µM | 30 µM | –
CNC(=O)c1cc(Oc2ccc(NC(=O)Nc3ccc(Cl)c(C(F)(F)F)c3)cc2)ccn1 [Sorafenib] | 15 µM | 4.19 | 7.9 µM | 7.9 µM | –
C=CC[C@@H]1/C=C(\C)C[C@H](C)C[C@H](OC)[C@H]2O[C@@](O)(C(=O)C(=O)N3CCCC[C@H]3C(=O)O[C@H](/C(C)=C/[C@@H]3CC[C@@H](O)[C@H](OC)C3)[C@H](C)[C@@H](O)CC1=O)[C@H](C)C[C@@H]2OC [Tacrolimus] | 30 µM | 4.26 | 30 µM | 40 µM | –
C[C@]12C=CC(=O)C=C1CC[C@H]1[C@@H]3C[C@@H](O)[C@](O)(C(=O)CO)[C@@]3(C)C[C@H](O)[C@@]12F [Triamcinolone] | > 100 µM | < 4.00 | > 100 µM | > 100 µM | –
COc1ccc(CCN(C)CCCC(C#N)(c2ccc(OC)c(OC)c2)C(C)C)cc1OC (stereo not drawn) [Verapamil] | – | – | 40 µM | 45 µM | –
